The values that follow are results of earlier work, collected in article PMC12251151, “Understanding Anti-Obesity Potential of Four Porphyrin Compounds by Investigating Pancreatic Lipase Inhibition” (Molecules, 2025).

One series deals with α-amylase. Set-up: method as in PMID 36603279. The following applies: read-out: IC50 inhibiting α-amylase; cited from earlier work.
A further series deals with α-glucosidase. More on the design: method as in PMID 36603279. The following applies: read-out: IC50 inhibiting α-glucosidase; cited from earlier work.

Regarding `COc1ccc([C@@H]2CC(=O)c3c(O)cc(O)cc3O2)cc1O` [Hsp, hesperetin], the IC50 is 115.6 ± 1.1 µM at α-amylase and 55.2 ± 0.1 µM at α-glucosidase.
